{
  "source": "patent EP0350163A2",
  "about": "“Renin inhibitory peptides” (BEECHAM GROUP PLC, priority 1988, dated 1990)",
  "note": "pIC50: −log10 of the molar value. Structures can show the parent of a compound that is named as a salt.",
  "data": [
    {"target": "T1, human renin (Homo sapiens, UniProt P00797)", "T1 construct": "from tissue; host or cells: human plasma from the blood of healthy volunteers", "T1 sequence (P00797 67-406)": "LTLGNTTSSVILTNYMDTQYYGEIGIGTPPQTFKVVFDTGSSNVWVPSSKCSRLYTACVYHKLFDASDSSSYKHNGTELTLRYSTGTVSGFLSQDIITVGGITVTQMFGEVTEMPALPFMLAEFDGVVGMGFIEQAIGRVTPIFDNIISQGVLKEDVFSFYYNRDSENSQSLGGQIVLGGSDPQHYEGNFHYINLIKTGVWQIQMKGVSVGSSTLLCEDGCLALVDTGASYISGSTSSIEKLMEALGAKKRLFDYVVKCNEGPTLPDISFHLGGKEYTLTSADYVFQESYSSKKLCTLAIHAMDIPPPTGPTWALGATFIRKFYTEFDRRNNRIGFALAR", "assay": "In vitro human renin inhibition (renin activity in human plasma, angiotensin I radioimmunoassay)", "assay_type": "biochemical", "conditions": "human plasma from healthy volunteers; angiotensin I difference between 37° and 4° for 2 h; linear regression of at least three concentrations; read-out: IC₅₀", "description": "Renin inhibitory activity was estimated as the percentage change in renin activity in human plasma in the presence and absence of compound. The source of plasma was blood taken from healthy volunteers. Renin activity was defined by the difference in angiotensin I levels between two halves of a sample, one incubated at 37^o and the other at 4^o for 2 h. Angiotensin I levels were measured using a ¹²⁵I- angiotensin I radioimmunoassay kit (NEN/DuPont, Stevenage). Results were calculated as the mean of at least two, duplicate determinations and IC₅₀ values were calculated by linear regression analysis of at least three concentrations of compound.", "values": [
      {"smiles": "CC(C)CNC(=O)C[C@H](O)[C@H](CC1CCCCC1)NC(=O)[C@H](CC(C)C)NC(=O)[C@H](Cc1ccccc1)NC(=O)CC1CS(=O)(=O)c2cc(N)ccc21", "note": "(stereo partly drawn) [Example E29, 4-(S)-((6-Amino-2,3-dihydro-1,1-dioxobenzothiophene-3-yl)acetyl-(S)-phenylalanyl-(S)-leucyl)amino-5-cyclohexyl-3-(S)-hydroxypentanoic acid isobutylamide dihydrate]", "pIC50": 8.00},
      {"smiles": "CC(C)CNC(=O)C[C@H](O)[C@H](CC1CCCCC1)NC(=O)[C@H](CC(C)C)NC(=O)[C@H](Cc1ccccc1)NC(=O)CC1COc2ccc(S(=O)(=O)CC(=O)OC(C)(C)C)cc21", "note": "(stereo partly drawn) [Example E43, 4-(S)-((5-(tert-Butoxycarbonylmethanesulphonyl)-2,3-dihydrobenzofuran-3-yl)acetyl)-(S)-phenylalanyl-(S)-leucyl)amino-5-cyclohexyl-3-(S)-hydroxypentanoic acid isobutylamide hemihydrate]", "pIC50": 8.10},
      {"smiles": "CC(C)CNC(=O)C[C@H](O)[C@H](CC1CCCCC1)NC(=O)[C@H](CC(C)C)NC(=O)[C@H](Cc1ccccc1)NC(=O)CC1COc2ccc(S(=O)(=O)CC(=O)O)cc21", "note": "(stereo partly drawn) [Example E56, 4-(S)-((5-(Carboxymethanesulphonyl)-2,3-dihydrobenzofuran-3-yl)acetyl-(S)-phenylalanyl-(S)-leucyl)amino-5-cyclohexyl-3-(S)-hydroxypentanoic acid isobutylamide, sodium salt]", "pIC50": 7.22},
      {"smiles": "CC(C)CNC(=O)C[C@H](O)[C@H](CC1CCCCC1)NC(=O)[C@H](CC(C)C)NC(=O)[C@H](Cc1ccccc1)NC(=O)CC1CS(=O)(=O)c2ccccc21", "note": "(stereo partly drawn) [Example E12, 4-(S)-((2,3-Dihydro-1,1-dioxobenzothiophene-3-yl)acetyl-(S)-phenylalanyl-(S)-leucyl)amino-5-cyclohexyl-3-(S)-hydroxypentanoic acid isobutylamide]", "pIC50": 8.00},
      {"smiles": "CC(C)CNC(=O)C[C@H](O)[C@H](CC1CCCCC1)NC(=O)[C@H](CC(C)C)NC(=O)[C@H](Cc1ccccc1)NC(=O)CC1CS(=O)(=O)c2cc(CN)ccc21", "note": "(stereo partly drawn) [Example E31a, 4-(S)-((6-Aminomethyl-2,3-dihydro-1,1-dioxobenzothiophene-3-yl)acetyl-(S)-phenylalanyl-(S)-leucyl)amino-5-cyclohexyl-3-(S)-hydroxypentanoic acid isobutylamide dihydrate]", "pIC50": 8.10},
      {"smiles": "CC(C)CNC(=O)C[C@H](O)[C@H](CC1CCCCC1)NC(=O)[C@H](Cc1cnc[nH]1)NC(=O)[C@H](Cc1ccccc1)NC(=O)CC1CS(=O)(=O)c2cc(CN)ccc21", "note": "(stereo partly drawn) [Example E60, 4-(S)-((6-Aminomethyl-2,3-dihydro-1,1-dioxobenzothiophene-3-yl)acetyl-(S)-phenylalanyl-(S)-histidyl)amino-5-cyclohexyl-3-(S)-hydroxypentanoic acid isobutylamide bis(trifluoroacetate) sesquihydrate]", "pIC50": 7.40},
      {"smiles": "CC(C)CNC(=O)C[C@H](O)[C@H](CC1CCCCC1)NC(=O)[C@H](CC(C)C)NC(=O)[C@H](Cc1ccccc1)NC(=O)CC1COc2ccc(CNCC(=O)O)cc21", "note": "(stereo partly drawn) [Example E36a, 4-(S)-((5-(Carboxymethylaminomethyl)-2,3-dihydrobenzofuran-3-yl)acetyl-(S)-phenylalanyl-(S)-leucyl)amino-5-cyclohexyl-3-(S)-hydroxvoentanoic acid isobutylamide]", "pIC50": 7.00},
      {"smiles": "CC(C)CNC(=O)C[C@H](O)[C@H](CC1CCCCC1)NC(=O)[C@H](CC(C)C)NC(=O)[C@H](Cc1ccccc1)NC(=O)CC1COc2ccc(N)cc21", "note": "(stereo partly drawn) [E 6, 4-(S)-((5-Amino-2,3-dihydrobenzofuran-3-yl)acetyl-(S)-phenylalanyl-(S)-leucyl)amino-5-cyclohexyl-3-(S)-hydroxypentanoic acid isobutylamide trifluoroacetate hemihydrate]", "pIC50": 7.52},
      {"smiles": "COc1cccc2c1OCC2CC(=O)N[C@@H](Cc1ccccc1)C(=O)N[C@@H](CC(C)C)C(=O)N[C@@H](CC1CCCCC1)[C@@H](O)CC(=O)NCC(C)C", "note": "(stereo partly drawn) [E 3, 4-(S)-((7-Methoxy-2,3-dihydrobenzofuran-3-yl)acetyl-(S)-phenylalanyl-(S)-leucyl)amino-5-cyclohexyl-3-(S)-hydroxypentanoic acid isobutylamide hemihydrate]", "pIC50": 7.30},
      {"smiles": "CC(C)CNC(=O)C[C@H](O)[C@H](CC1CCCCC1)NC(=O)[C@H](CC(C)C)NC(=O)[C@H](Cc1ccccc1)NC(=O)CC1COc2ccc(NC(N)=O)cc21", "note": "(stereo partly drawn) [E 7, 4-(S)-((5-Ureido-2,3-dihydrobenzofuran-3-yl)acetyl-(S)-phenylalanyl-(S)-leucyl)amino-5-cyclohexyl-3-(S)-hydroxypentanoic acid isobutylamide dihydrate]", "pIC50": 7.30},
      {"smiles": "CC(C)CNC(=O)C[C@H](O)[C@H](CC1CCCCC1)NC(=O)[C@H](CC(C)C)NC(=O)[C@H](Cc1ccccc1)NC(=O)CC1COc2ccc(CN)cc21", "note": "(stereo partly drawn) [Example E20a, 4-(S)-((5-(Aminomethyl)-2,3-dihydrobenzofuran-3-yl)acetyl-(S)-phenylalanyl-(S)-leucyl)amino-5-cyclohexyl-3-(S)-hydroxypentanoic acid isobutylamide hemi(trichloromethanate)]", "pIC50": 7.52},
      {"smiles": "CC(C)CNC(=O)C[C@H](O)[C@H](CC1CCCCC1)NC(=O)[C@H](Cc1c[nH]cn1)NC(=O)[C@H](Cc1ccccc1)NC(=O)CC1COc2ccc([N+](=O)[O-])cc21", "note": "(stereo partly drawn) [Example E39, 4-(S)-((5-Nitro-2,3-dihydrobenzofuran-3-yl)acetyl-(S)-phenylalanyl-(S)-histidyl)amino-5-cyclohexyl-3-(S)-hydroxypentanoic acid isobutylamide hydrate]", "pIC50": 7.40},
      {"smiles": "CC(C)CNC(=O)C[C@H](O)[C@H](CC1CCCCC1)NC(=O)[C@H](CC(C)C)NC(=O)[C@H](Cc1ccccc1)NC(=O)CC1CS(=O)(=O)c2ccc(C#N)cc21", "note": "(stereo partly drawn) [Example E45, 4-(S)-((5-Cyano-2,3-dihydro-1,1-dioxobenzothiophene-3-yl)acetyl-(S)-phenylalanyl-(S)-leucyl)amino-5-cyclohexyl-3-(S)-hydroxypentanoic acid isobutylamide]", "pIC50": 8.05},
      {"smiles": "CC(C)CNC(=O)C[C@H](O)[C@H](CC1CCCCC1)NC(=O)[C@H](CC(C)C)NC(=O)[C@H](Cc1ccccc1)NC(=O)CC1COc2ccc([N+](=O)[O-])cc21", "note": "(stereo partly drawn) [E 5, 4-(S)-((5-Nitro-2,3-dihydrobenzofuran-3-yl)acetyl-(S)-phenylalanyl-(S)-leucyl)amino-5-cyclohexyl-3-(S)-hydroxypentanoic acid isobutylamide hemihydrate]", "pIC50": 7.22},
      {"smiles": "CC(C)CNC(=O)C[C@H](O)[C@H](CC1CCCCC1)NC(=O)[C@H](Cc1cnc[nH]1)NC(=O)[C@H](Cc1ccccc1)NC(=O)CC1COc2ccc(C(=O)OCc3ccccc3)cc21", "note": "(stereo partly drawn) [Example E23, 4-(S)-((5-Benzyloxycarbonyl)-2,3-dihydrobenzofuran-3-yl)acetyl-(S)-phenylalanyl-(S)-histidyl)amino-5-cyclohexyl-3-(S)-hydroxypentanoic acid isobutylamide hemihydrate]", "pIC50": 6.33},
      {"smiles": "CC(C)CNC(=O)C[C@H](O)[C@H](CC1CCCCC1)NC(=O)[C@H](CC(C)C)NC(=O)[C@H](Cc1ccccc1)NC(=O)CC1CS(=O)(=O)c2ccc(CN)cc21", "note": "(stereo partly drawn) [Example E50, 4-(S)-((5-Aminomethyl-2,3-dihydro-1,1-dioxobenzothiophene-3-yl)acetyl-(S)-phenylalanyl-(S)-leucyl)amino-5-cyclohexyl-3-(S)-hydroxypentanoic acid isobutylamide]", "pIC50": 8.00},
      {"smiles": "CNS(=O)(=O)c1ccc2c(c1)C(CC(=O)N[C@@H](Cc1ccccc1)C(=O)N[C@@H](CC(C)C)C(=O)N[C@@H](CC1CCCCC1)[C@@H](O)CC(=O)NCC(C)C)CO2", "note": "(stereo partly drawn) [E 9, 4 (S)-((5-(Methylaminosulphonyl)-2,3-dihydrobenzofuran-3-yl)acetyl-(S)-phenylalanyl-(S)-leucyl)amino-5-cyclohexyl-3-(S)-hydroxypentanoic acid isobutylamide]", "pIC50": 7.30}
    ]}
  ]
}
